The nature of series [1]: logP determination by reversed-phase HPLC (EEC Directive 79/831 Annex V.A8). Format: physicochemical. Conditions: reversed-phase C18 HPLC column; a) acidic range: 0.1% aqueous phosphoric acid/acetonitrile gradient, C18, 43° C. On the procedure:
The logP values given in Example 1 and in Table 1 were determined in accordance with EEC Directive 79/831 Annex V.A^8 by HPLC (High Performance Liquid Chromatography) using a reversed-phase column (C 18). Temperature: 43° C.
(a) Mobile phases for the determination in the acidic range: 0.1% aqueous phosphoric acid, acetonitrile; linear gradient from 10% acetonitrile to 90% acetonitrile—the corresponding data are labelled in Table 1 with ^a).
(b) Mobile phases for the determination in the neutral range: 0.01 molar aqueous phosphate buffer solution, acetonitrile; linear gradient from 10% acetonitrile to 90% acetonitrile—corresponding data are labelled in Table 1 with ^b).
Calibration was carried out using unbranched alkan-2-ones (with from 3 to 16 carbon atoms) whose logP values are known (determination of the logP values by the retention times using linear interpolation between two successive alkanones).

In series [2] the test system is weeds. In words: Post-emergence test, overall statement. Type of series: in vivo. On the procedure: (§1) Solvent: 5 parts by weight of acetone
(§2) Emulsifier: 1 part by weight of alkylaryl polyglycol ether
(§3) To produce a suitable preparation of active compound, 1 part by weight of active compound is mixed with the stated amount of solvent, the stated amount of emulsifier is added and the concentrate is diluted with water to the desired concentration.
(§4) Test plants which have a height of 5-15 cm are sprayed with the preparation of active compound such that the particular amounts of active compound desired are applied per unit area. The concentration of the spray liquor is chosen so that the particular amounts of active compound desired are applied in 1000 l of water/ha.
(§5) After three weeks, the degree of damage to the plants is rated in % damage in comparison to the development of the untreated control.
(§6) 0%=no effect (like untreated control)

Series [3] concerns Abutilon. In words: Pre-emergence test/greenhouse. Type of series: in vivo. Conditions: 500 g of ai./ha, rated after three weeks vs untreated control. As for the experimental part:
as §1, §2, §3
(§7) Seeds of the test plants are sown in normal soil. After about 24 hours, the soil is sprayed with the preparation of active compound such that the particular amount of active compound desired is applied per unit area. The concentration of the spray liquor is chosen so that the particular amount of active compound desired is applied in 1000 litre of water per hectare.
as §5, §6

In series [4] the test system is Alopecurus. In words: Pre-emergence test/greenhouse. Type of series: in vivo. Conditions: 500 g of ai./ha, rated after three weeks vs untreated control. As for the experimental part: as §1, §2, §3, §7, §5, §6
Series [5] has as its system Amaranthus. In words: Pre-emergence test/greenhouse. Format: in vivo. To be noted: 500 g of ai./ha, rated after three weeks vs untreated control. On the procedure: as §1, §2, §3, §7, §5, §6
Series [6] has as its system Galium. In words: Pre-emergence test/greenhouse. Format: in vivo. To be noted: 500 g of ai./ha, rated after three weeks vs untreated control. As for the experimental part: as §1, §2, §3, §7, §5, §6
Series [7] has as its system Setaria. In words: Pre-emergence test/greenhouse. Type of series: in vivo. Conditions: 500 g of ai./ha, rated after three weeks vs untreated control. On the procedure: as §1, §2, §3, §7, §5, §6
For series [8], the system named is Alopecurus. In words: Post-emergence test/greenhouse. Format: in vivo. To be noted: 500 g of ai./ha, rated after three weeks vs untreated control. As for the experimental part:
as §1, §2, §3, §4, §5, §6

The test system of series [9] is Sinapis. In words: Post-emergence test/greenhouse. Type of series: in vivo. Conditions: 500 g of ai./ha, rated after three weeks vs untreated control. On the procedure:
as §1, §2, §3, §4, §5, §6

Series [10] has as its system Amaranthus. In words: Post-emergence test/greenhouse. Format: in vivo. Conditions: 500 g of ai./ha, rated after three weeks vs untreated control. On the procedure: as §1, §2, §3, §4, §5, §6
In series [11] the test system is Setaria. In words: Post-emergence test/greenhouse. To be noted: 500 g of ai./ha, rated after three weeks vs untreated control. Type of series: in vivo. As for the experimental part:
as §1, §2, §3, §4, §5, §6

Series [12] deals with Xanthium. In words: Post-emergence test/greenhouse. Type of series: in vivo. Conditions: 500 g of ai./ha, rated after three weeks vs untreated control. On the procedure: as §1, §2, §3, §4, §5, §6
Series [13] relates to weeds. In words: Pre-emergence test, overall statement. Type of series: in vivo. On the procedure:
as §1, §2, §3, §7, §5, §6

Molecules are shown by their SMILES. Counter-ions that a name gives are not always drawn.

`[H]/N=C(/N)N/C(=N/[H])NC1CCCc2sc(C)cc21` (centres unmarked) [Example II-1, 2-methyl-4,5,6,7-tetrahydrobenzo[b]thiophen-4-yl-biguanide hydrochloride] gave a chromatographic logP in [1] of 1.12.

As for `CC(F)c1nc(N)nc(NC2CCCc3sccc32)n1` (centres unmarked) [Example 1, 2-amino-4-(1-fluoro-ethyl)-6-(4,5,6,7-tetra-hydrobenzo[b]thiophen-4-yl-amino)-1,3,5-triazine], the activity against weeds result in series [2] and in [13] was “strong activity” throughout. The “% damage Abutilon” value in series [3] is recorded as 95%. Moreover, the “% damage Alopecurus” value in [4] was 100%; in [8], 95%. Also, the “% damage Amaranthus” value in series [5] and in [10] was 100% each time. Further, in [6], the “% damage Galium” value is 90%. Moreover, the “% damage Setaria” value in [7] and in series [11] was 100% in each case. For the same compound, in [1], the chromatographic logP came to 4.26. The “% damage Sinapis” value in series [9] amounted to 100%. The “% damage Xanthium” value in series [12] is recorded as 100%.

The values above are taken from patent US6756342B1, “Substituted thienocycloalk(en) ylamino -1,3,5-triazine” (priority 1999, dated 2004).
